In series [1] the test system is HT 1080 cell. The series can be described thus: MTT assay, cell survival rate (Example 8). Conditions: for cell survival rate (MTT assay): 24 hours. The class given is cell-based.
The test system of another series is GRP 78. The series can be described thus: Western blot of GRP 78 expression in HT 1080 cell (Examples 6, 7). Conditions: glucose-deficient condition, cultured 18 hours, FIGS. 5 to 8. The class given is cell-based. From the text:
In Example 6, the action of the VST derivative to inhibit expression of GRP 78 was studied by Western blot method. In the present experiment, the compounds prepared in Example 1 (the compounds having the chemical structure represented by “Formula 11” as the substituent group R^1 (n=3)) was used as the VST derivative.
Expression of GRP 78 is known to induce under glucose-deficient condition. Thus in the present experiment, the action of the VST derivative to induce or inhibit expression of GPR78 was studied both under glucose-deficient condition and also under normal condition.
The experiment was performed generally in the following manner: First, HT 1080 cell (cancer cell) was cultured in RPMI 1640 medium. […] Then, cultured cells were harvested, and GRP 78 expressed was detected by Western blotting with an anti-GRP 78 antibody.
Then, the cell was cultured in a similar manner and condition to those in Example 6, and GRP 78 expressed was detected by Western blotting by using an anti-GRP 78 antibody.

For series [2], the system named is HT 1080 cell. The series can be described thus: Toxicity at the cell level, cell count at 100 μM (Examples 11, 12). The class given is cell-based.
Experimental: HT 1080 cell was cultured in a 6-cm dish until the cells became 70% confluent, and VST or a VST derivative was added to a concentration of 10, 3, or 1 μM in the absence of glucose (in the glucose-deficient state), and the action thereof was studied.
In the present Example, the VST derivative prepared in Example 1 (the compounds having the chemical structure represented by “Formula 11” as the substituent group R^1 (n=3)) was used as the VST derivative. […] In the present Example, VST or the VST derivative was added at a concentration of 100 μM.
In the present Example, the culture cell was brought into the glucose-deficient state by addition of 2-deoxyglucose.
The three kinds of VST biotin derivatives prepared in Example 7 were used as the VST derivatives. In the present Example, VST or the VST derivative was added to a concentration of 100 μM, and 2-DG, to a concentration of 20 mM.
Another series relates to ICR mice. The series is described as follows: Acute toxicity experiment in mice (Example 13). Type of series: in vivo. Conditions: male ICR mice, tail vein injection. The procedure:
The mice used were 7- to 8-week old male ICR mice (available from Charles River). VST or a VST derivative was administered to each mouse by tail vein injection, and the toxicity thereof was studied. In the present experiment, the VST biotin derivative prepared in Example 7 was used as the VST derivative.

For `O=CC[C@@H](O)[C@H](O)[C@H](O)CO` [Example 2-DG, 2-deoxyglucose], the “cell survival rate (MTT assay)” value in the series on HT 1080 cell [1] (20 mM 2-DG alone) was “approximately 50%”.
Take versipelostatin [VST]: in the series on GRP 78, the “induction of GRP 78 expression (Western blot)” value was “inhibited to some extent”. Further, in the series on HT 1080 cell [1] (2-DG not added, MTT assay), the “addition amount above which the cell survival rate declined significantly” value was “exceeded 25 μM”. Moreover, the “cell survival rate (MTT assay)” value in the series with HT 1080 cell [1] (2-DG not added, increasing addition amount, derivatives = VST-Biotin, VST-Biotin-C6, VST-Biotin-C12) was “declined significantly”; in the series on HT 1080 cell [1] (with 20 mM 2-DG (glucose-deficient state), derivatives = VST-Biotin, VST-Biotin-C6, VST-Biotin-C12) it was “around 30%”. For the same molecule, the cell death result is “cell death” in the series with HT 1080 cell [2] (Example 11: HT 1080 cell, glucose-deficient state) and “cell death” in the series with HT 1080 cell [2] (Example 12: HT 1080 cell, glucose-deficient state by 2-DG 20 mM, three VST biotin derivatives of Example 7). In addition, the cell count entry is on record as “significant decrease in cell count” with HT 1080 cell [2] (Example 11: HT 1080 cell, normal culture environment (glucose present)) and “significant drop in cell count” in the series on HT 1080 cell [2] (Example 12: HT 1080 cell, normal culture environment, three VST biotin derivatives of Example 7). Further, the “Number of dead animals (within 24 hours)” value in the series with ICR mice (6 mg/kg) was 0; in the series on ICR mice (9 mg/kg), 0; with ICR mice (12 mg/kg), 1; with ICR mice (15 mg/kg) it was 5; in the series on ICR mice (18 mg/kg), 4; in the series with ICR mice (21 mg/kg) it was 4. Also, in the series with ICR mice (30 mg/kg), the “Number of dead animals (within 24 hours)” value was found to be 4. Further, in the series on ICR mice (summary of Table 1), the “dosage leading to death of all mice” value was “more than 18 mg/kg”.

For the origin of these results see US20090124562A1, “Versipelostatin derivative, anti-cancer agent and processes for production of the derivative and agent” (TOUDAI TLO, LTD., priority 2005, published 2009).
